Data from patent US20220031680A1, “Donecopride As Neuroprotective Agent In the Treatment of Neurodegenerative Diseases” (priority 2018, published 2022).
Values joined by “and” are separate entries in the source; they are usually repeats but may differ in a detail not shown here. Equal values may be shown once.

Legend:
Aβ42 = Aβ42 concentration in cerebrospinal fluid of 5×FAD mice; format: in vivo, mouse; conditions: 1 mg/kg twice a week for 3 months; compared to controls
Protocol: 5×FAD mice received chronic treatments with drugs or vehicle according to 2 different protocols. In each experiment, drugs or vehicle solution were administered i.p. twice a week (1 mg/kg). In “Protocol 1”, mice (n=6-7 mice per group) were treated with compounds for two months, from 2 to 4 months of age. In “Protocol 2”, mice (n=7) were treated with compounds for three months, from 1 month to 4 months of age. At the end of each protocol, mice were anesthetized with a mixture of 100 mg/kg ketamine and 10 mg/kg xylazine in saline solution and perfused transcardially with PBS. Brains were quickly isolated on ice, the olfactory bulbs and cerebellum removed and the two hemispheres divided. One hemisphere was frozen on dry ice and stored at −80° C. for biochemical analysis, while the other was post-fixed in 4% PFA for immunohistochemistry (IHC).
Mice were anesthetized and mounted onto a stereotaxic instrument. The neck skin was cut and subcutaneous tissue and muscles separated with the help of micro-retractors (Fine Science Tools, Heidelberg, Germany). Mice were then laid down so that the head formed an angle of about 135° with the body (Liu and Duff (2008) J. Vis. Exp. 10:960). A capillary tube (Borosilicate glass, B100-75-10, Sutter Instruments, Novato, Calif., USA) was used to punch the dura mater of the cisterna magna. CSF was collected by capillary action and transferred to 0.5 mL microtubes, immediately frozen on dry ice and stored at −80° C. until use. Once thawed, samples were heated at 60° C. for 5 min as described in the international application WO 2008/009868 and analyzed without further freezing-thawing cycles.
ELISA kits from IBL International (Hamburg, Germany) for the dosage of Aβ40 (human amyloid β (1-40) assay kit, #27713) or Aβ42 (human amyloid β (1-42) assay kit, #27719) were used according to the manufacturer's instructions. Reactions were read at 620 nm and 450 nm using an Infinite 2000 luminescence counter. The obtained values were normalized to the protein concentration of each sample, measured using a BCA protein assay (Sigma-Aldrich). […]

α-syn = α-syn aggregation in TH neurons injured with MPP+; format: cell-based, rat; conditions: MPP+ 4 μM 48 h; 1 h pre-incubation
Protocol: The aim of the present study was to investigate the neuroprotective effect of MR36014 and MR33583 (at 4 concentrations) on dopaminergic TH-positive neurons injured with MPP^+. The test compounds were pre-incubated for 1 hour before MPP^+ application (4 μM for 48 h). The neuroprotective effect (survival and neurite network) of test compounds was investigated. In addition, the effect on the cytoplasmic alpha-synuclein accumulation was studied.
Rat dopaminergic neurons were cultured as described by Callizot et al. (2019) PLoS One 14:e0215277 and Visanji et al. (2008) FASEB J. 22:2488-2497. Briefly, pregnant female rat (Wistar) of 15 days of gestation were killed using a deep anesthesia with CO2 chamber and a cervical dislocation. The midbrains obtained from 15-day-old rat embryos (Janvier, France) were dissected under a microscope. […]
Midbrains were dissociated by trypsinisation for 20 min at 37° C. […] Viable cells were counted in a Neubauer cytometer using the trypan blue exclusion test. […]
Briefly, on day 6 of culture, the medium was removed, and fresh medium was added, with or without test compounds and with or without MPP^+ for 48 hours diluted in control medium. 6 wells per condition were assessed. […]
Test compounds were tested in 96-well plate (n=6 culture wells per condition). […] The following conditions were assessed: […]

## COc1cc(N)c(Cl)cc1C(=O)CCC1CCN(CC2CCCCC2)CC1 [Donecopride]
Aβ42
  Aβ42 concentration in cerebrospinal fluid (CSF): not significantly different

## COc1cc(N)c(F)cc1C(=O)CCC1CCN(CC2CCCCC2)CC1 [Flucopride]
Aβ42
  Aβ42 concentration in cerebrospinal fluid (CSF): not significantly different

## COc1cc(N)c(F)cc1C(=O)CCC1CCN(CC2CCCC2)CC1 [MR33583]
α-syn
  concentrations reducing accumulation/aggregation of α-syn: 50 nM and 100 nM

## COc1cc(N)c(F)cc1C(=O)CCC1CCN(CC2CCCCCC2)CC1 [MR36014]
α-syn
  concentrations reducing accumulation/aggregation of α-syn: all investigated doses
